Assay results from US20150305328A1, “METHODS OF SAFENING SUGAR CANE PLANTS WITH N-ACYLSULFAMOYLPHENYLUREAS” (SYNGENTA PARTICIPATIONS AG, priority 2012, published 2015).

Test system: sugar cane varieties SP803280 and RB835486
Experiment: Glasshouse safening test: visual phytotoxicity of pre-emergent herbicides on sugar cane grown from safener-soaked single-node stem sections
Assay type: in vivo
Protocol: In the following examples, two commercial and contemporary Brazilian sugar cane varieties were used in the experiential testing, SP803280 and RB835486. The sugar cane propagation material was prepared using single-node stem sections approximately 8 cm in length. The stem sections were treated by soaking for about 10 seconds in a solution containing Formula A=1-[4-(N-2-methoxybenzoylsulfamoyl)phenyl]-3-methylurea (15 ml of formulated product in 500 ml water; the formulated product contained 100 grams of Formula A per liter of formulated product). Four stem segments (replicates) were planted in and covered with 1 cm of the regular live loam soil used in glasshouse screening using standard planting troughs, putting each variety in a separate trough. Seeds of one of two appropriate weeds, Euphorbia heterophylla or Brachiaria decumbens were also planted in each trough in a clump to give a measure of relative weeds control alongside crop phytotoxicity. Plants were assessed for percentage visual phytotoxicity at 7 day intervals after application (DAA) up to 35 DAA. Three herbicides, all having different modes-of-action were applied the day after planting as pre-emergent herbicide. The herbicides applied were: clomazone (Gamit®) having a DOXP mode-of-action (inhibition of the 1-desoxy-D-xylulose 5-phosphate), sufentrazone (Boral®) having a PPO mode-of-action (inhibition of protoporphyrinogen oxidase), and bicyclopyrone having an HPPD mode-of-action (inhibition of the enzyme 4-hydoxyphenylpyruvate dioxygenase). Application of each herbicide was applied at 600, 1200, 1600, and 2000 grams per hectare equivalents. Results: Shown in FIGS. 1-12 (DAA—Herbicide—Sugar Cane Variety)

Structure (SMILES) | safening of sulfentrazone (both varieties of sugar cane, stem sections soaked in Formula A) | phytotoxicity level with sulfentrazone after Formula A treatment (percentage visual phytotoxicity, reduced from 80%, in certain instances) | safening of bicyclopyrone (stem sections soaked in Formula A, bicyclopyrone applied pre-emergent) | safening of clomazone (stem sections soaked in Formula A, clomazone applied pre-emergent) | safening effect as sugar cane propagation material applied safener (with all three herbicides (clomazone, sulfentrazone, bicyclopyrone), applied pre-emergent at 600-2000 g/ha, FIGS. 1-12, 28 and 35 DAA) | phytotoxicity level of sulfentrazone without Formula A safening (sugar cane, in vivo)
CNC(=O)Nc1ccc(S(=O)(=O)NC(=O)c2ccccc2OC)cc1 [Formula A, 1-[4-(N-2-methoxybenzoylsulfamoyl)phenyl]-3-methylurea] | very effectively | zero | strong safening | strong safening | clear safening effect | –
Cc1nn(-c2cc(NS(C)(=O)=O)c(Cl)cc2Cl)c(=O)n1C(F)F [sulfentrazone, reference compound] | – | – | – | – | – | 80%
